Structures can show the parent of a compound that is named as a salt. Where two headings read alike, the source gives them in different places.
Tests used:
[1] = target: T1, Adrenergic β2 (Homo sapiens, UniProt P07550); test: Adrenergic β2 mediated cAMP production in H292 cells (AlphaScreen cAMP detection); type: cell-based; conditions: for EC50: cAMP production in H292 cells, 300 μM rolipram, 10 minutes with compound, read-out: β2 pEC50 (converted)
T1 construct: endogenous in cells; host or cells: H292 cells
Method: Adrenergic β2 Mediated cAMP Production
H292 cells were grown in RPMI (Roswell Park Memorial Institute) medium containing, 10% (v/v) FBS (foetal bovine serum) and 2 mM L-glutamine. Cells were grown in 225 cm2 flasks containing 25 mL media in a humidified incubator at 37° C., 5% CO2. Cells were harvested from the flask and passaged at a 1 in 10 dilution once per week.
The media from flasks containing H292 cells was removed, rinsed with 10 mL PBS phosphate buffered saline) and replaced with 10 mL Accutase™ cell detachment solution. Flasks were incubated for 15 minutes in a humidified incubator at 37° C., 5% CO2. The cell suspension was counted and the cells re-suspended in RPMI media (containing 10% (v/v) FBS and 2 mM L-glutamine) at 0.05×10^6 cells per mL. 5000 cells in 100 μL were added to each well of a tissue-culture-treated 96-well plate and the cells incubated overnight in a humidified incubator at 37° C., 5% CO2. The culture media was removed, washed twice with 100 μL assay buffer and replaced with 50 μL assay buffer. Cells were rested at room temperature for 20 minutes after which time 25 μL of rolipram (1.2 mM made up in assay buffer containing 2.4% (v/v) dimethylsulphoxide) was added. Cells were incubated with rolipram for 10 minutes after which time test compounds (made up as ×4 concentrated stocks in assay buffer containing 4% (v/v) dimethylsulphoxide) were added and the cells were incubated for 10 minutes at room temperature. Final rolipram concentration in the assay was 300 μM and final vehicle concentration was 1.6% (v/v) dimethylsulphoxide. The reaction was stopped by removing supernatants, washing once with 100 μL assay buffer and replacing with 50 μL lysis buffer. The cell monolayer was frozen at −80° C. for 30 minutes (or overnight).
The concentration of cAMP (cyclic adenosine monophosphate) in the cell lysate was determined using the AlphaScreen™ methodology. The frozen cell plate was thawed for 20 minutes on a plate shaker then 10 μL of the cell lysate was transferred to a 96-well white plate. 40 μL of mixed AlphaScreen™ detection beads (containing equal volumes of donor beads (pre-incubated with biotinylated cAMP in the dark for 30 minutes) and acceptor beads), was added to each well and the plate incubated at room temperature for 10 hours in the dark. The AlphaScreen™ signal was measured using an EnVision spectrophotometer (Perkin-Elmer Inc.) with the recommended manufacturer's settings. cAMP concentrations were determined by reference to a calibration curve determined in the same experiment using standard cAMP concentrations (made up in lysis buffer in a 96-well tissue-culture-treated plate and frozen/thawed alongside the test samples) and detected using the same protocol. Concentration response curves for agonists were constructed to determine both the pEC50 and Intrinsic Activity.

[2] = target: T2, recombinant human adrenergic beta 1 receptors (Homo sapiens, UniProt P08588); test: Adrenergic β1 selectivity assay, [125I]-Iodocyanopindolol binding to membranes; conditions: inhibition of [125I]-Iodocyanopindolol binding, read-out: β1 pEC50 (converted)
T2 construct: purchased Euroscreen
Method: Membranes containing recombinant human adrenergic beta 1 receptors were obtained from Euroscreen. These were diluted in Assay Buffer (50 mM HEPES, 1 mM EDTA, 120 mM NaCl, 0.1% gelatin, pH 7.4) to provide a final concentration of membranes that gave a clear window between maximum and minimum specific binding.
(§1) Assays were performed in U-bottomed 96-well polypropylene plates. 10 μL [^125I]-Iodocyanopindolol (0.036 nM final concentration) and 10 μL of test compound (10× final concentration) were added to each test well. For each assay plate 8 replicates were obtained for [^125I]-Iodocyanopindolol binding in the presence of 10 μL vehicle (10% (v/v) DMSO in Assay Buffer; defining maximum binding) or 10 μL Propranolol (10 μM final concentration; defining non-specific binding (NSB)). Membranes were then added to achieve a final volume of 100 μL. The plates were incubated for 2 hours at room temperature and then filtered onto PEI coated GF/B filter plates, pre-soaked for 1 hour in Assay Buffer, using a 96-well plate Tomtec cell harvester. Five washes with 250 μL wash buffer (50 mM HEPES, 1 mM EDTA, 120 mM NaCl, pH 7.4) were performed at 4° C. to remove unbound radioactivity. The plates were dried then sealed from underneath using Packard plate sealers and MicroScint-O (50 μL) was added to each well. The plates were sealed (TopSeal A) and filter-bound radioactivity was measured with a scintillation counter (TopCount, Packard BioScience) using a 3-minute counting protocol.
(§2) Total specific binding (B0) was determined by subtracting the mean NSB from the mean maximum binding. NSB values were also subtracted from values from all other wells.

[3] = target: T3, recombinant human α1D receptor (Homo sapiens, UniProt P25100); test: Adrenergic α1D selectivity assay, [3H]-prazosin binding to HEK293 membranes; conditions: inhibition of [3H]-prazosin binding, HEK293 membranes with recombinant human α1D; read-out: α1D pEC50 (converted)
T3 construct: expressed in transfected cells; host or cells: HEK293
T3 sequence (P25100 1-572): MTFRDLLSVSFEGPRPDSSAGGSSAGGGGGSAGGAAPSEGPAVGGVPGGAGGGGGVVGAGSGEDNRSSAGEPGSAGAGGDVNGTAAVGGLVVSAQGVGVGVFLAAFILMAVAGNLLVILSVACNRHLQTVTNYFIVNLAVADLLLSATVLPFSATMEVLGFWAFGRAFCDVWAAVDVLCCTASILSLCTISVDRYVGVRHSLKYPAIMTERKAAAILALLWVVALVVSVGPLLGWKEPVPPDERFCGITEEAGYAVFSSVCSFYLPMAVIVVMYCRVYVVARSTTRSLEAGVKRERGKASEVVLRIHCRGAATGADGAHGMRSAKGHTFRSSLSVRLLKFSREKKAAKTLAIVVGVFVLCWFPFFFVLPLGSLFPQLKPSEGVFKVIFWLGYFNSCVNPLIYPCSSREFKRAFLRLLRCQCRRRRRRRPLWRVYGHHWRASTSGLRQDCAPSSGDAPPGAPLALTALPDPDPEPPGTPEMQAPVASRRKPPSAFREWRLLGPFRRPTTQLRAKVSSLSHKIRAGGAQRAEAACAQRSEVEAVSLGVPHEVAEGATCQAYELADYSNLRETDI
Method: These were diluted in Assay Buffer (50 mM HEPES, 1 mM EDTA, 0.1% gelatin, pH 7.4) to provide a final concentration of membranes that gave a clear window between maximum and minimum specific binding.
as §1, with “10 μL [^125I]-Iodocyanopindolol (0.036 nM final concentration) and 10 μL of test compound (10× final concentration) were added to each test well.” left out, “[^3H]-prazosin” for “[^125I]-Iodocyanopindolol”, “BMY7378” for “Propranolol”, “EDTA,” for “EDTA, 120 mM NaCl,”
as §2

[4] = fraction relative to the maximum activity determined for formoterol in each experiment, H292 cells, cAMP

T2 sequence (P08588 whole entry): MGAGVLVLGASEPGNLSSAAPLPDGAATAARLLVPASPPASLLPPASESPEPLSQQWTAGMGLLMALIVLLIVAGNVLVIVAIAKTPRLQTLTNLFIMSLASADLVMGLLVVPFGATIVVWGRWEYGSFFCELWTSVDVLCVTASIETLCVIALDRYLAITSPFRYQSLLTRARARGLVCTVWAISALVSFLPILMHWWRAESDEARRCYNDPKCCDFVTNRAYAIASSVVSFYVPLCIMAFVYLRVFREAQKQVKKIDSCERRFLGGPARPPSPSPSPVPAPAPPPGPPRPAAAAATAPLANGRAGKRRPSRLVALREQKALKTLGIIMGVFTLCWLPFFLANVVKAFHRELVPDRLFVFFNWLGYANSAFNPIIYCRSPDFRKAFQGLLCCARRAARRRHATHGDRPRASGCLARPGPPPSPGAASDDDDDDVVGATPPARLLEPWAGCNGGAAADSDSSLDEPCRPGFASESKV
T1 sequence (P07550 whole entry): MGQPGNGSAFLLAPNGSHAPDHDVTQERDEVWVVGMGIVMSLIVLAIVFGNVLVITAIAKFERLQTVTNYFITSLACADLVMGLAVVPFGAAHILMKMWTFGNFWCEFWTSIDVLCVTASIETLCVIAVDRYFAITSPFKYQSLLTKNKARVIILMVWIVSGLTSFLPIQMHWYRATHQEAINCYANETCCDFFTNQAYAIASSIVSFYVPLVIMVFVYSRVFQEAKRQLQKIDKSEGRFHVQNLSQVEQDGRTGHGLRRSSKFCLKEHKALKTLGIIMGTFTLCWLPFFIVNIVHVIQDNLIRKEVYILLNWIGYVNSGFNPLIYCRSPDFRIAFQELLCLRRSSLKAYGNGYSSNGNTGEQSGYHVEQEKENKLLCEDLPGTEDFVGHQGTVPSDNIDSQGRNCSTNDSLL

Row | Structure (SMILES) | EC50 [1] [nM] | Intrinsic Activity [1, 4] | EC50 [2] [nM] | EC50 [3] [nM] | Intrinsic Activity [1]
1 | O=c1[nH]c2c(O)ccc([C@@H](O)CNCCc3cccc(CN4CCCC4)c3)c2s1 [Example 51, 4-Hydroxy-7-{1R-hydroxy-2-[2-(3-pyrrolidin-1-ylmethyl-phenyl)-ethylamino]-ethyl}-3H-benzothiazol-2-one bis-hydrochloride salt] | 1 | 1.1 | 1260 | 1000 | 
2 | CC(Cc1cccc(CNCCc2c(Cl)cccc2Cl)c1)NC[C@H](O)c1ccc(O)c2[nH]c(=O)sc12 (stereo partly drawn) [Example 15, 7-{2-[2-(3-{[2-(2,6-Dichloro-phenyl)-ethylamino]-methyl}-phenyl)-1-methyl-ethylamino]-1R-hydroxy-ethyl}-4-hydroxy-3H-benzothiazol-2-one bis-trifluoroacetate salt] |  |  | 15.8 | 39.8 | 0.8
3 | CC(C)OCCCNCc1cccc(CCNC[C@H](O)c2ccc(O)c3[nH]c(=O)sc23)c1 [Example 64, 4-Hydroxy-7-[1R-hydroxy-2-(2-{3-[(3-isopropoxy-propylamino)-methyl]-phenyl}-ethylamino)-ethyl]-3H-benzothiazol-2-one bis-hydrochloride salt] | 0.794 | 0.8 | 501 | 398 | 
